According to patent publication US20210340572A1, “HIGH-CONTENT IMAGING OF MICROFLUIDIC DEVICES” (EMULATE, Inc., priority 2019, published 2021):

Legend:
[1] = Phase I dose-escalating study, clinical chemistry (ALT, AST); format: in vivo, human; conditions: Phase I clinical trial
Method: A double-blind, placebo-controlled, randomized, dose-escalating, sequential group design was conducted in 2 Parts. Subjects received daily doses of JNJ-28312141 or placebo for a total of 2 weeks (the first dose on Day 1 and then daily on Days 3 to 14). Part 1 included 5 cohorts of healthy male or female subjects. In Part 2 of the study, 2 cohorts of postmenopausal women (PMW) were enrolled. Within each cohort of 12 subjects, 9 subjects were randomized to JNJ-1, and 3 subjects were randomized to placebo. Dose escalation only occurred after the Sponsor and the Investigator had performed a satisfactory review of the preliminary safety data including those obtained on the post-study follow up visit (anytime between Days 30 to 32), and of the drug concentration and PK data (if available) at the current dose level. In addition to efficacy endpoints, and pharmacokinetics, an assessment of safety included measurement of clinical chemistry parameters, including ALT and AST.

[2] = Repeat-dose toxicity study of JNJ-1 in rats; format: in vivo; conditions: rat study
Method: (§1) JNJ-1, prepared in purified water, was administered once daily for 14 days to 5 male and 5 female rats at doses of 5, 25, and 125 mg/kg. In a separate study, JNJ-1, also in purified water, was administered once daily for 4 weeks to 5 male and 5 female dogs at 0 or 40 mg/kg/day, and to 3 males and 3 female dogs at 2 or 10 mg/kg/day. Mortality, clinical observations, body weight, food consumption, clinical pathology, gross necropsy and microscopic examination of selected tissues, and toxicokinetics were evaluated. Rats or dogs were fasted overnight prior to blood collection for measurement of clinical pathology parameters (including AST and ALT) at the end of 14 days (rats) or 4 weeks (dogs) of dosing. Histology slides (hematoxylin and eosin staining and Mason's Trichrome staining) of the liver tissues were prepared and evaluated microscopically. The quantification of JNJ-1 was conducted using a qualified liquid chromatographic-triple quadrupole mass spectrometric (LC-MS/MS) procedure.

[3] = Repeat-dose toxicity study of JNJ-1 in dogs; format: in vivo; conditions: dog study
Method: as §1

[4] = tested on: Kupffer cells; assay: Kupffer cell count (CD68-positive cells) in human chips; format: cell-based; conditions: human quadruple-cell chips
Method: Microfluidic devices seeded with liver cells and static sandwich plate cultures were fixed with 4% paraformaldehyde for 15 minutes at room temperature, washed with PBS, and permeabilized (saponin 1% with 10% serum in PBS). Blocking and incubation with the primary antibodies (overnight in PBS containing 1% BSA or PBS containing 10% serum and 1% BSA) was followed by a two-hour incubation with secondary antibodies (Cell Signaling, Danvers, Mass., USA) in the same blocking buffer. Immunostaining was performed with specific primary antibodies (anti-MRP2, anti-stabilin-1, anti-BSEP, anti-α-SMA, anti-CD68; Abcam, Cambridge, Mass., USA) and images were acquired with either an Olympus fluorescence microscope (IX83) or Zeiss confocal microscope (AxiovertZ1 LSM880).
The number of CD68- or α-SMA-positive cells in the vascular channel in each group was counted in each field of view ([…]) and quantified.

[5] = tested on: microfluidic devices seeded with human liver cells; assay: Cytokine release (IL-6, MCP-1, IP-10) from the vascular channel of human chips; format: cell-based; conditions: human quadruple-cell chips
Method: Cytokines: Release of IL-6, MCP-1, and IP-10 from the vascular channel was quantified using U-PLEX biomarker human assays (Meso Scale Diagnostics, Rockville, Md., USA) and the assays were performed according to the protocol provided by the vendor.

[6] = tested on: microfluidic devices seeded with human liver cells; assay: Albumin secretion, microfluidic devices seeded with human liver cells; format: cell-based
Text: Prior to cell seeding, microfluidic devices, in this case S-1 Chips (Emulate, Inc. Boston, Mass., USA), were functionalized using Emulate's proprietary protocols and reagents (ERT™), including those described herein. After surface functionalization, both channels of the microfluidic device were coated with species-specific extracellular matrices (ECM). For the human bound microfluidic device, a mixture of collagen type I (Corning, Corning, N.Y., USA) and fibronectin, e.g. bovine, (Gibco) was used; for the rat bound microfluidic devices a mixture of collagen type IV, e.g. human placenta, (Sigma-Aldrich, St. Louis, Mo., USA) and fibronectin (Gibco) was used; for the dog bound microfluidic devices a mixture of collagen I (Corning), collagen type IV (Sigma-Aldrich), and fibronectin (Gibco) was used. […] For the dual-cell culture model (hepatocytes and endothelial cells), the LSECs were seeded at a concentration of 2-4 million cells/mL in the lower vascular channel. […] After cell seeding, the upper channel of the microfluidic device was maintained in William's E Medium (WEM) containing Glutamax (Gibco), ITS+(Corning), dexamethasone (Sigma-Aldrich), ascorbic acid (Sigma-Aldrich), fetal bovine serum (FBS) (Sigma-Aldrich), and Penicillin/Streptomycin (Sigma-Aldrich). The vascular channel of the microfluidic device was maintained with species-specific endothelial media (Emulate, Inc.). Two days after seeding, the microfluidic devices were connected to the Human Emulation System™ (Emulate, Inc.), as described in part herein, and both of the microfluidic device channels were perfused at 30 μL/hr to provide a continuous supply of fresh media for the duration of the experiments. Albumin secretion from the upper channel was quantified using ELISA kits for human, rat, and dog models effluent samples (human and rat: Abcam; dog: Immunology Consultants Laboratory, Inc., Portland, Oreg., USA) and the assays were performed according to the protocol provided by each vendor.

[7] = tested on: microfluidic devices seeded with human liver cells; assay: APAP metabolite quantification by LC-MS in human chips; format: in vitro ADME; conditions: daily 3 mM for 20 days, flow 10 μL/hr
Text: After APAP exposure to microfluidic devices seeded with human liver cells, effluent metabolite levels were quantified using LC-MS analysis. […] APAP-Glucuronide (APAP-Glu), the primary metabolite of APAP, was not quantified using a standard curve. Rather, the LC-MS peak area of APAP-Glu was reported corresponding to each sample.

[8] = tested on: primary human hepatocytes and liver sinusoidal endothelial cells (LSECs); assay: High-content confocal imaging of microfluidic devices seeded with liver cells; format: cell-based; conditions: 10 μM, six hours of exposure
Method: Microfluidic devices were obtained from Emulate Inc. (USA) and are illustrated in FIG. 1A. The channels of the microfluidic devices were coated with a proprietary mixture of extracellular matrix and were incubated overnight at 37° C. Primary human cryopreserved hepatocytes sourced from ThermoFisher, as one example, were seeded in the top channel at a density of 3.5×10^6 cells/mL, and were left to form an attached monolayer at 37° C. in a humidified incubator with a 95%/5% ratio of air to CO2.
Twenty-four hours after seeding, the hepatocyte monolayer was overlaid with Matrigel Matrix sourced from Corning, USA. Primary human cryopreserved liver sinusoidal endothelial cells, also known as LSECs, were seeded on the bottom channel of the microfluidic device at a density of 2 to 4×10^6 cells/mL in endothelial medium, also known as CSC medium or Base LSEC Culture Medium; CSC basal Medium plus Culture-Boost (2%), Cell Systems, and Pen/Strep (1%), Sigma. In some embodiments, endothelial cells are cultured in Complete LSEC Culture Medium, Base LSEC Culture Medium plus 10% FBS.
Microfluidic devices were inverted for 2 hours to allow attachment underneath the membrane, and then inverted back before being connected to a platform containing a pneumatic pump source from Emulate Inc. Media was flowed through both channels at a flow rate of 30 μL/hour and was refreshed every other day.
The effects of agents, such as staurosporine on cell phenotype was evaluated. Microfluidic devices were perfused with staurosporine (0 and 10 μM) for 6 hours at a flow rate of 30 μL/hour. A compound was also tested in the microfluidic devices seeded with liver cells. The microfluidic devices seeded with liver cells were perfused with the compound at the concentrations of 0.1 μM, 1 μM or 10 μM for 3 hours, after which the compound was removed from the media flow. The protocol was chosen as it was analogous to how the compound has been evaluated in vivo. […]

[9] = tested on: microfluidic devices seeded with dog liver cells; assay: Albumin secretion, microfluidic devices seeded with dog liver cells; format: cell-based; conditions: Canis lupus familiaris, 168 h; dual-cell dog chips, daily administration 1-100 μM, 7 days; read-out: IC50, decrease in albumin secretion
Text: (§2) Prior to cell seeding, microfluidic devices, in this case S-1 Chips (Emulate, Inc. Boston, Mass., USA), were functionalized using Emulate's proprietary protocols and reagents (ERT™), including those described herein. After surface functionalization, both channels of the microfluidic device were coated with species-specific extracellular matrices (ECM). For the human bound microfluidic device, a mixture of collagen type I (Corning, Corning, N.Y., USA) and fibronectin, e.g. bovine, (Gibco) was used; for the rat bound microfluidic devices a mixture of collagen type IV, e.g. human placenta, (Sigma-Aldrich, St. Louis, Mo., USA) and fibronectin (Gibco) was used; for the dog bound microfluidic devices a mixture of collagen I (Corning), collagen type IV (Sigma-Aldrich), and fibronectin (Gibco) was used. […] For the dual-cell culture model (hepatocytes and endothelial cells), the LSECs were seeded at a concentration of 2-4 million cells/mL in the lower vascular channel. […] Albumin secretion from the upper channel was quantified using ELISA kits for human, rat, and dog models effluent samples (human and rat: Abcam; dog: Immunology Consultants Laboratory, Inc., Portland, Oreg., USA) and the assays were performed according to the protocol provided by each vendor.

[10] = tested on: microfluidic devices seeded with rat liver cells; assay: Albumin secretion / hepatocyte function, microfluidic devices seeded with rat liver cells; format: cell-based; conditions: Hepatocyte, 168 h; dual-cell rat chips, daily administration 1-100 μM, 7 days; read-out: IC50, decrease in albumin secretion
Text: as §2

[11] = target: T1, BSEP (Homo sapiens, UniProt O95342); assay: CLF efflux (BSEP activity) in human hepatocytes on chip; format: cell-based; conditions: 30 μM
T1 construct: Primary rat, dog or human hepatocytes were cultured in the upper parenchymal channel; endogenous in cells; host or cells: primary human hepatocytes in a microfluidic Liver-Chip, co-cultured with LSECs
Text: Microfluidic devices seeded with liver cells were stained in the upper channel with 5(6)-Carboxy-2′,7′-dichlorofluorescein diacetate (CDFDA) (ThermoFisher) to visualize bile canaliculi and MRP2 activity, cholyl-lysyl-fluorescein (CLF) (Corning) to visualize bile canaliculi and BSEP activity, Nile red (ThermoFisher) or AdipoRed (Lonza) to visualize lipid droplet accumulation, Tetramethylrhodamine, methyl ester (TMRM) (ThermoFisher) to visualize active mitochondria, and CellROX® (ThermoFisher) to visualize cellular oxidative stress. Each staining solution was prepared in blank medium or compound dosing medium and added to the upper channel, incubated for 15 minutes at 37° C., and washed three times with medium. The stained microfluidic devices were imaged using a specific filter, and were de-blurred with Olympus cellSens software. Using ImageJ-Fiji, the fluorescent channel images were histogram adjusted to remove background, followed by fluorescence quantification using the Integrated Density calculation function.
Both a brightfield and a fluorescence image was taken from each field of view. […] These criteria were determined empirically using a small test set of images and then applied to images for the analysis. […] The data for treated and control samples were quantified by computing the area percentage of CLF-labeled bile canaliculi within each field of view (FOV).

[12] = tested on: 3D human spheroid hepatic cultures; conditions: compared with human chip IC50; cited from earlier work
[13] = human plasma; cited from earlier work

T1 sequence (O95342 whole entry): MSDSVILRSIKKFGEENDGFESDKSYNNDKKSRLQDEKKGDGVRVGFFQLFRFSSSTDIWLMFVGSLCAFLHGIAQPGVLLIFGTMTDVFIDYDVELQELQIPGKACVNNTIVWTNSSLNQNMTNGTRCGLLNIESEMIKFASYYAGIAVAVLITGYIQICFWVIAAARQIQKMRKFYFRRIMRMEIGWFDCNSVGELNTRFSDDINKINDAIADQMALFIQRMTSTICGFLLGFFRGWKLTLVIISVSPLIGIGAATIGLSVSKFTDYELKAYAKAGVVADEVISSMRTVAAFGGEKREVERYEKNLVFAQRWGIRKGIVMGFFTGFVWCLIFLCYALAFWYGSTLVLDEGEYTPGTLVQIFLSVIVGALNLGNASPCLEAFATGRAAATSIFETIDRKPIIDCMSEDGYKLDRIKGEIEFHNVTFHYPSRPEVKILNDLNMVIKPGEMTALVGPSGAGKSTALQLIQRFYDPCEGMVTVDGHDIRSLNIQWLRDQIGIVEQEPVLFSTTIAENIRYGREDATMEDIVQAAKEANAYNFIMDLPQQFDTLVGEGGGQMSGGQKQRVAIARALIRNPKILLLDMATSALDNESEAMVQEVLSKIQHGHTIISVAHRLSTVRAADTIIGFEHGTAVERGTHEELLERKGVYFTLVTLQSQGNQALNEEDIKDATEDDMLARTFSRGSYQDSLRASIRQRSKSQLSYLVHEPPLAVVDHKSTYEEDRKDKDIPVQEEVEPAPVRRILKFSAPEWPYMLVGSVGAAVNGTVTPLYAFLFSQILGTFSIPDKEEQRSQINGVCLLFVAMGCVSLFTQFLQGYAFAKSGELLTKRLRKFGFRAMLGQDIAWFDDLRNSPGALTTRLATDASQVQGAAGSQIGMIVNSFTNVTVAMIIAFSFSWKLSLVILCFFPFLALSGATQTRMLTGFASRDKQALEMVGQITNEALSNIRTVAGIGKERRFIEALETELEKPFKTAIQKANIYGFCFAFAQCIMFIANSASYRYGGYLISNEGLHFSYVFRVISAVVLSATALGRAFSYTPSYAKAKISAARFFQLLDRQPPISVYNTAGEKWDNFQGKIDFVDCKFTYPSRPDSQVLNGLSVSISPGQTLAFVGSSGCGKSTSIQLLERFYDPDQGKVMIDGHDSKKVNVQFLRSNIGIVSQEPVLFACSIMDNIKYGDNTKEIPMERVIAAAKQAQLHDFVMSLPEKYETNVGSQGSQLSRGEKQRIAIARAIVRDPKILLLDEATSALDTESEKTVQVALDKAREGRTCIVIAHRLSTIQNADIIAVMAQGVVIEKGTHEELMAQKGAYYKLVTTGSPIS

SMILES: CN(C)CC(=O)N1CCC(c2ccc(NC(=O)c3nc(C#N)c[nH]3)c(C3=CCCCC3)c2)CC1 [JNJ compound]
- healthy subjects with elevation of alanine aminotransferase (ALT) [1]: 3/12
- healthy subjects with elevation of aspartate aminotransferase (AST) [1]: 7/12
- microscopic changes in the liver [2]: without any correlative microscopic changes
- transaminases [2]: Dose-related elevation
- microscopic changes in the liver [3]: without any correlative microscopic changes
- transaminases [3]: Dose-related elevation
- Kupffer cells (CD68-positive cells) [4]: decreased number
- interleukin 6 (IL-6) in the vascular channel [5]: dose-dependent decrease
- monocyte chemoattractant protein-1 (MCP-1) in the vascular channel [5]: dose-dependent decrease

SMILES: CC(=O)Nc1ccc(O)cc1 [APAP, acetaminophen]
- albumin synthesis / secretion ([6]; quadruple-cell human chips, 7 days): decreased
- APAP glucuronide in parenchymal and vascular channels [7]: significant amounts

SMILES: CN[C@@H]1C[C@H]2O[C@@](C)([C@@H]1OC)n1c3ccccc3c3c4c(c5c6ccccc6n2c5c31)C(=O)NC4 [staurosporine]
- LSECs (cell number) [8]: complete loss of LSECs
- apoptotic marker (CC3) [8]: marked increases
- hepatocyte cell number [8]: little if any effect

SMILES: COc1ccccc1Oc1c(NS(=O)(=O)c2ccc(C(C)(C)C)cc2)nc(-c2ncccn2)nc1OCCO [bosentan]
- IC50 ([6]; 72 h, dual-cell human chips, daily administration 1-100 μM, 3 days, read-out: IC50, decrease in albumin secretion): 10 µM
- IC50 [9]: 30 µM
- IC50 [10]: > 100 µM
- intracellular accumulation of CLF [11]: intracellular accumulation
- reduction in CLF efflux ([11]; co-treatment with CLF): > 50%
- IC50 in 3D human spheroid hepatic cultures relative to human chip [12]: more than 10 fold higher
- plasma concentration (Cmax) associated with DILI in humans [13]: 7.4 µM
